The target of experiment [1] is Vascular endothelial growth factor receptor 2 (Homo sapiens, UniProt P35968). As to the kind of experiment: Inhibition of recombinant human N-terminal GST-fused KDR (D807 to V1356 residues) expressed in baculovirus infected […] insect Sf9 cells using poly-EY as substrate after 240 mins by luciferase coupled chemiluminescence assay.
Experiment [2] concerns the target T1, Ephrin type-B receptor 4 (Homo sapiens, UniProt P54760).
T1 sequence (P54760 whole entry): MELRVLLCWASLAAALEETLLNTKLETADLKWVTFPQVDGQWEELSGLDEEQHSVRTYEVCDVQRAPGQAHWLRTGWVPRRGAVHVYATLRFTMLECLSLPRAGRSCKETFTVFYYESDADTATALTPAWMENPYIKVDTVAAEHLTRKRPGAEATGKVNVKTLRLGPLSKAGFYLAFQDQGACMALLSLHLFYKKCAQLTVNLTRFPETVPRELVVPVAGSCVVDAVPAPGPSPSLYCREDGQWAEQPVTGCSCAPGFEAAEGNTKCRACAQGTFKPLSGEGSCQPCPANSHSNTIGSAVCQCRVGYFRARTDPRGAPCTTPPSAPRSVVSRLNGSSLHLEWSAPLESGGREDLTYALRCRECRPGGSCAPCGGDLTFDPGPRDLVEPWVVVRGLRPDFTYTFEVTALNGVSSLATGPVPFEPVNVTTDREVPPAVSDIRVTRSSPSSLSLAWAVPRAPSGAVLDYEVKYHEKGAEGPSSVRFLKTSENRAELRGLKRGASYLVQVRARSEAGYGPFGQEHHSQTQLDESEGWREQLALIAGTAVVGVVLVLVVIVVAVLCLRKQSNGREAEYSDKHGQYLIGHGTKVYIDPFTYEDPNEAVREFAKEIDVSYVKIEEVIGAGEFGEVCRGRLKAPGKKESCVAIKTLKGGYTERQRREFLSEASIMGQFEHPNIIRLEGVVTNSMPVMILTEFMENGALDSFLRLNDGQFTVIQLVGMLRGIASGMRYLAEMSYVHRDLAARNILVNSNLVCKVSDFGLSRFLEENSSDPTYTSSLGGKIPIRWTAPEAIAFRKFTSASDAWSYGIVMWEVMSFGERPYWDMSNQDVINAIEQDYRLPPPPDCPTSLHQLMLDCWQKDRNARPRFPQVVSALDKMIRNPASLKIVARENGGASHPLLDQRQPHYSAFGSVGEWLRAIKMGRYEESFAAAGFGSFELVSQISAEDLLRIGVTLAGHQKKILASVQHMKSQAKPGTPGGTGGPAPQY
The experiment in a line: Inhibition of recombinant human N-terminal His6-tagged EphB4 kinase domain (E605 to E890 residues) expressed in baculovirus using poly-AEKY as substrate after 150 mins in presence of gamma33P-ATP by liquid scintillation spectrometry.

Experiment [3] addresses Ephrin type-A receptor 2 (Homo sapiens, UniProt P29317). The experiment in a line: Inhibition of recombinant human N-terminal His6-tagged EphA2 (N598 to R890 residues) expressed in baculovirus using poly-EY as substrate after 180 mins by luciferase coupled chemiluminescence assay.

This passage reports IC50 results from ChEMBL document CHEMBL3882729, “Receptor-type kinase modulators and methods of use” (2009).

Sequence of Ephrin type-A receptor 2 (P29317 whole entry, the tested form may be a part): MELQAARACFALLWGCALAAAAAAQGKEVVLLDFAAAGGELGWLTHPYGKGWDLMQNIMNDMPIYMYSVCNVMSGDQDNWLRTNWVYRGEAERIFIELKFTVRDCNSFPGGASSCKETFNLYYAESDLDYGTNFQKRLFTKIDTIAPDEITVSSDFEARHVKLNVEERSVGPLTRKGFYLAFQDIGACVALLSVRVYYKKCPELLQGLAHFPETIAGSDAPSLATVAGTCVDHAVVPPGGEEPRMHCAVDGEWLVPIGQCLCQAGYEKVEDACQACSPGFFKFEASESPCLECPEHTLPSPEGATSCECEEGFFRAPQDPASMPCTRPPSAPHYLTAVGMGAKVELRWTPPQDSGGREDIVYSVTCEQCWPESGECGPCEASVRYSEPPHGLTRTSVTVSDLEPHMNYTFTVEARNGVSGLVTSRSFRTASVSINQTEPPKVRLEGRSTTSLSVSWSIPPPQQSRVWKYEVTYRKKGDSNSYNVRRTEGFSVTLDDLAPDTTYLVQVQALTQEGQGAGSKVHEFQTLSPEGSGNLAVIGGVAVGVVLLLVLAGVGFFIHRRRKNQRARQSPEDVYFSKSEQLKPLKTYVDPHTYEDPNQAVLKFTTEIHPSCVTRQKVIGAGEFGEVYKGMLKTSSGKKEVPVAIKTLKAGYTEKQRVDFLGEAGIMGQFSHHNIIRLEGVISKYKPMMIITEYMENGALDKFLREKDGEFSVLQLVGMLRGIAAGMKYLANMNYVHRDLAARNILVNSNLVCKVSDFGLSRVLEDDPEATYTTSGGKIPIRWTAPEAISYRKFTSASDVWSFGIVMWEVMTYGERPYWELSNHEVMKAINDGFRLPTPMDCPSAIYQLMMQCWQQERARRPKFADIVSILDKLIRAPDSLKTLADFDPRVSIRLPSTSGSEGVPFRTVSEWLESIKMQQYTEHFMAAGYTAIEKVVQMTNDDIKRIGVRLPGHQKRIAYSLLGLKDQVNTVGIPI
Sequence of Vascular endothelial growth factor receptor 2 (P35968 whole entry, the tested form may be a part): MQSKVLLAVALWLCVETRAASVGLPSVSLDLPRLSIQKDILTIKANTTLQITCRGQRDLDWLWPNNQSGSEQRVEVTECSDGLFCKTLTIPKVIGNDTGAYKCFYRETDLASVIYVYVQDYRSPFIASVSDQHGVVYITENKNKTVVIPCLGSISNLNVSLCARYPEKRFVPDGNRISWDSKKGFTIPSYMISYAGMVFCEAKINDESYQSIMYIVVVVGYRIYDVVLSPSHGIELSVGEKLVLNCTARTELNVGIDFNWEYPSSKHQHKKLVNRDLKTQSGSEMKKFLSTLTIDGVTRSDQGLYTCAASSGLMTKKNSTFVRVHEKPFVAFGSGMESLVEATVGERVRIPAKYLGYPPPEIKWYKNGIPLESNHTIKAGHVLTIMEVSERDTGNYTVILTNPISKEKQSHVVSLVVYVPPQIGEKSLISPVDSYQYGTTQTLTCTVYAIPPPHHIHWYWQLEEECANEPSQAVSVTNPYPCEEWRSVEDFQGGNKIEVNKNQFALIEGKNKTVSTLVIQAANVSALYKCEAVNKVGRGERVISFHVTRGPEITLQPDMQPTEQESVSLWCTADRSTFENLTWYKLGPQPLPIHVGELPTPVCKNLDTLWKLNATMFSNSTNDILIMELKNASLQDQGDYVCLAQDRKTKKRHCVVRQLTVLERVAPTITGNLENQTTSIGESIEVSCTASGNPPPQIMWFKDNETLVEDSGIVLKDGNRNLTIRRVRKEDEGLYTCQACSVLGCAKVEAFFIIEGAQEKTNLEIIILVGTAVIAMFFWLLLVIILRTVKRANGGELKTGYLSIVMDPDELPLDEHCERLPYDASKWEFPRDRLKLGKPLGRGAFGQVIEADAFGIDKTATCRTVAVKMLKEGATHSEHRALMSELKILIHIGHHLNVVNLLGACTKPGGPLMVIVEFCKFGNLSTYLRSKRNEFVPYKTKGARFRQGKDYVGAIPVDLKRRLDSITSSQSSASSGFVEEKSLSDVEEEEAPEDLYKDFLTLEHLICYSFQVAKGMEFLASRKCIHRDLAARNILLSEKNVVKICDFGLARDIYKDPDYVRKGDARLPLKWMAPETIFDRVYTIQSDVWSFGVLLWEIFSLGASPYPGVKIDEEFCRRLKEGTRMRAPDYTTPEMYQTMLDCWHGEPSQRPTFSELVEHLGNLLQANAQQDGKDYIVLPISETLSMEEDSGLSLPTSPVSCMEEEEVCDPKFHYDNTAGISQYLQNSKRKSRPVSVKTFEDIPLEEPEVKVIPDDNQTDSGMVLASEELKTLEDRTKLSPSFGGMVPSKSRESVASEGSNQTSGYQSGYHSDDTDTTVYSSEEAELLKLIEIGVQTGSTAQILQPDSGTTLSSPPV

Regarding `CCCCS(=O)(=O)N1CCOC(COc2cc3ncnc(Nc4ccc(Cl)c(Cl)c4)c3cc2OC)C1` (stereo not drawn), the IC50 in experiment [1], in experiment [2] and in experiment [3] was 50 to 1000 nM each time.

On to `CCC(C(=O)N1CCOC(COc2cc3ncnc(Nc4ccc(Cl)c(Cl)c4)c3cc2OC)C1)c1ccccc1` (stereo not drawn), for which the IC50 in experiment [1] was 50 to 1000 nM; in experiment [2], 50 to 1000 nM; in experiment [3], 1000 to 20000 nM.

For the molecule `COc1cc2c(Nc3ccc(Cl)c(Cl)c3)ncnc2cc1OCC1CN(C(C)C(C)=O)CCO1` (stereo not drawn), the IC50 in experiment [1], in experiment [2] and in experiment [3] was 50 to 1000 nM throughout.

As for `COc1cc2c(Nc3ccc(Cl)c(Cl)c3)ncnc2cc1OCC1CN(C/C=C/Br)CCO1` (stereo not drawn), the half-inhibitory concentration (IC50) in experiment [1], in experiment [2] and in experiment [3] was 50 to 1000 nM throughout.

With `COc1cc2c(Nc3ccc(Cl)c(Cl)c3)ncnc2cc1OCC1CN(S(=O)(=O)Cc2ccccc2)CCO1` (stereo not drawn), the IC50 in experiment [1], in experiment [2] and in experiment [3] was 50 to 1000 nM each time.

With `COc1cc2c(Nc3ccc(Cl)c(Cl)c3)ncnc2cc1OCC1CN(CC2CCCCC2)CCCO1` (stereo not drawn), the half-inhibitory concentration (IC50) in experiment [1] was less than 50 nM; in experiment [2], 50 to 1000 nM; in experiment [3] it was 50 to 1000 nM.

Take `COc1cc2c(Nc3ccc(Cl)c(Cl)c3)ncnc2cc1OCC1CN(CCC2CCCCC2)CCCO1` (stereo not drawn): the IC50 in experiment [1], in experiment [2] and in experiment [3] was 50 to 1000 nM throughout.

Regarding `COc1cc2c(Nc3ccc(Cl)c(Cl)c3)ncnc2cc1OCC1CN(CCc2ccccc2)CCO1` (stereo not drawn), the IC50 lay in the range of 50 to 1000 nM in experiment [1], 50 to 1000 nM in experiment [2] and 1000 to 20000 nM in experiment [3].

As for `CCC(CC)CN1CCCOC(COc2cc3ncnc(Nc4ccc(Cl)c(Cl)c4)c3cc2OC)C1` (stereo not drawn), the concentration for half-maximal inhibition (IC50) in experiment [1], in experiment [2] and in experiment [3] was 50 to 1000 nM in each case.

Regarding `CCCCCN1CCOC(COc2cc3ncnc(Nc4ccc(Cl)c(Cl)c4)c3cc2OC)C1` (stereo not drawn), the IC50 in experiment [1], in experiment [2] and in experiment [3] was 50 to 1000 nM throughout.

In the case of `COc1cc2c(Nc3ccc(Cl)c(Cl)c3)ncnc2cc1OCC1CN(CC=C(C)C)CCO1` (stereo not drawn), the IC50 in experiment [1], in experiment [2] and in experiment [3] was 50 to 1000 nM in each case.

Consider `CCCCCCN1CCOC(COc2cc3ncnc(Nc4ccc(Cl)c(Cl)c4)c3cc2OC)C1` (stereo not drawn), for which the IC50 in experiment [1], in experiment [2] and in experiment [3] was 50 to 1000 nM throughout.

As for `COc1cc2c(Nc3ccc(Cl)c(Cl)c3)ncnc2cc1OCC1CN(S(=O)(=O)c2ccccc2)CCO1` (stereo not drawn), the figures for the IC50 in experiment [1], in experiment [2] and in experiment [3] were 50 to 1000 nM, 50 to 1000 nM and 1000 to 20000 nM, respectively.

On to `CCN1CCN(CC)C(COc2cc3ncnc(Nc4ccc(Cl)c(Cl)c4)c3cc2OC)C1` (stereo not drawn), for which the half-inhibitory concentration (IC50) in experiment [1] fell in the range of 1000 to 20000 nM; in experiment [2], 50 to 1000 nM; in experiment [3] it was 50 to 1000 nM.

Consider `COc1cc2c(Nc3ccc(Br)cc3F)ncnc2cc1OCC1CCN(C(N)=NC#N)CC1`, for which the IC50 in experiment [1] was less than 50 nM; in experiment [2] it was 50 to 1000 nM; in experiment [3] it was 50 to 1000 nM.

For the molecule `COc1cc2c(Nc3ccc(Cl)c(Cl)c3)ncnc2cc1OCC1CN(C(=O)Cc2ccc(Cl)cc2)CCO1` (stereo not drawn), the IC50 in experiment [1] lay in the range of 50 to 1000 nM; in experiment [2], 50 to 1000 nM; in experiment [3], 1000 to 20000 nM.

On to `COc1cc2c(Nc3ccc(Cl)c(Cl)c3)ncnc2cc1OCC1CN(C(=O)CCC(C)C)CCO1` (stereo not drawn), for which the concentration for half-maximal inhibition (IC50) in experiment [1], in experiment [2] and in experiment [3] was 50 to 1000 nM throughout.

On to `COc1cccc(CC(=O)N2CCOC(COc3cc4ncnc(Nc5ccc(Cl)c(Cl)c5)c4cc3OC)C2)c1` (stereo not drawn), for which the IC50 in experiment [1], in experiment [2] and in experiment [3] was 50 to 1000 nM each time.

As to `C=CCN1CCOC(COc2cc3ncnc(Nc4ccc(Cl)c(Cl)c4)c3cc2OC)C1` (stereo not drawn), the IC50 in experiment [1], in experiment [2] and in experiment [3] was 50 to 1000 nM throughout.

For the molecule `COc1cc2c(Nc3ccc(Cl)c(Cl)c3)ncnc2cc1OCC1CN(CCC(C)C)CCCO1` (stereo not drawn), the 50% inhibitory concentration (IC50) in experiment [1], in experiment [2] and in experiment [3] was 50 to 1000 nM each time.

For the molecule `COc1cc2c(Nc3ccc(Cl)c(Cl)c3)ncnc2cc1OCC1CN(C2CCN(C)CC2)CCO1` (stereo not drawn), the IC50 in experiment [1] is less than 50 nM; in experiment [2] it was less than 50 nM; in experiment [3], 50 to 1000 nM.

With `COc1cc2c(Nc3cccc(Cl)c3F)ncnc2cc1OCC1CN(C)CCO1` (stereo not drawn), the concentration for half-maximal inhibition (IC50) in experiment [1], in experiment [2] and in experiment [3] was 50 to 1000 nM throughout.

Turning to `COc1cc2c(Nc3ccc(Cl)c(Cl)c3)ncnc2cc1OCC1CN(CCF)CCO1` (stereo not drawn), the 50% inhibitory concentration (IC50) in experiment [1], in experiment [2] and in experiment [3] was 50 to 1000 nM each time.

`COc1cc2c(Nc3ccc(Cl)c(Cl)c3)ncnc2cc1OCC1CN(S(=O)(=O)c2ccc(F)cc2)CCO1` (stereo not drawn): the figures for the IC50 in experiment [1], in experiment [2] and in experiment [3] were 50 to 1000 nM, 50 to 1000 nM and 1000 to 20000 nM, respectively.

For the molecule `CCCC(CCC)C(=O)N1CCOC(COc2cc3ncnc(Nc4ccc(Cl)c(Cl)c4)c3cc2OC)C1` (stereo not drawn), the IC50 in experiment [1], in experiment [2] and in experiment [3] was 50 to 1000 nM each time.

`COc1cc2c(Nc3ccc(Cl)c(Cl)c3)ncnc2cc1OCC1CN(CCCOC2CCCCO2)CCCO1` (stereo not drawn): the IC50 was less than 50 nM in experiment [1], less than 50 nM in experiment [2] and 50 to 1000 nM in experiment [3].

As to `COc1cc2c(Nc3ccc(Cl)c(Cl)c3)ncnc2cc1OCC1OCCN(CC(=O)c2ccccc2)C1=O` (stereo not drawn), the IC50 in experiment [1], in experiment [2] and in experiment [3] was 50 to 1000 nM in each case.

In the case of `CCC(=O)CN1CCOC(COc2cc3ncnc(Nc4ccc(Cl)c(Cl)c4)c3cc2OC)C1` (stereo not drawn), the IC50 in experiment [1], in experiment [2] and in experiment [3] was 50 to 1000 nM in each case.

Regarding `COc1cc2c(Nc3ccc(Cl)c(Cl)c3)ncnc2cc1OCC1CN(S(=O)(=O)c2ccc(C)cc2)CCO1` (stereo not drawn), the IC50 in experiment [1] was 50 to 1000 nM; in experiment [2] it was 1000 to 20000 nM; in experiment [3] it was 1000 to 20000 nM.

Turning to `CCCCCCCN1CCOC(COc2cc3ncnc(Nc4ccc(Cl)c(Cl)c4)c3cc2OC)C1` (stereo not drawn), the 50% inhibitory concentration (IC50) was 50 to 1000 nM in experiment [1], 50 to 1000 nM in experiment [2] and 1000 to 20000 nM in experiment [3].

With `CCCCCCCCN1CCOC(COc2cc3ncnc(Nc4ccc(Cl)c(Cl)c4)c3cc2OC)C1` (stereo not drawn), the IC50 in experiment [1] was in the range of 1000 to 20000 nM; in experiment [2], 50 to 1000 nM; in experiment [3] it was 1000 to 20000 nM.

Take `COc1cc2c(Nc3ccc(Cl)c(Cl)c3)ncnc2cc1OCC1CN(C(=O)c2cc(F)ccc2F)CCO1` (stereo not drawn): the concentration for half-maximal inhibition (IC50) in experiment [1], in experiment [2] and in experiment [3] was 50 to 1000 nM in each case.

On to `COc1cc2c(Nc3ccc(Cl)c(Cl)c3)ncnc2cc1OCC1CN(CCCCF)CCO1` (stereo not drawn), for which the IC50 in experiment [1] was less than 50 nM; in experiment [2], less than 50 nM; in experiment [3] it was 50 to 1000 nM.

Take `CCCCc1ccc(C(=O)N2CCOC(COc3cc4ncnc(Nc5ccc(Cl)c(Cl)c5)c4cc3OC)C2)cc1` (stereo not drawn): the IC50 in experiment [1], in experiment [2] and in experiment [3] was 1000 to 20000 nM in each case.

As for `CC[C@@H](C)CN1CCOC(COc2cc3ncnc(Nc4ccc(Cl)c(Cl)c4)c3cc2OC)C1` (stereo partly drawn), the IC50 in experiment [1], in experiment [2] and in experiment [3] was 50 to 1000 nM throughout.

For `CCCC(C)C(=O)N1CCOC(COc2cc3ncnc(Nc4ccc(Cl)c(Cl)c4)c3cc2OC)C1` (stereo not drawn), the IC50 in experiment [1], in experiment [2] and in experiment [3] was 50 to 1000 nM each time.

By IC50 is commonly meant the midpoint of a concentration-inhibition curve.
